Data set [1] relates to accommodation control system / ciliary body muscarinic receptors. The conditions noted are these: in vivo.
For data set [2], the system named is muscarinic receptors within the eye. The conditions noted are these: in vivo; cited from earlier work.
The subject of data set [3] is pupil light response / muscarinic receptors within the iris. The arrangement: species or system human. The conditions noted are these: in vivo.
Data set [4] concerns the target human iris muscarinic receptors. The conditions noted are these: cited from earlier work.

In the case of `CN(C)CCOC(=O)C(c1ccccc1)C1(O)CCCC1` (stereo not drawn) [cyclopentolate], the ability to accommodate entry in data set [1] (human) was “maintained the ability to accommodate sufficiently to read at 33 cm”. Further, in data set [1], the “mean increase in the AC/A ratio over baseline” value came out at 173% and the “receptoral blockade suggested by AC/A increase” value amounted to 42%.

`CN1[C@@H]2CC[C@H]1C[C@@H](OC(=O)C(CO)c1ccccc1)C2` (stereo partly drawn) [atropine]: in data set [2], the duration of effects is 6 to 12 days; the “duration of pupil dilatation and paralysis of accommodation” value was “up to 7 days”. Moreover, in data set [3], the “baseline difference in pupil size” value came to 0.6 mm, the “estimated level of receptor blockade 1-(V400post/V400pre)” value is listed as 35% and the “peak difference in pupil constriction (light response)” value is listed as 1.6 mm. Further, in data set [4], the “apparent dissociation constant KA” value is 0.4 to 0.7 nM.

Source of the values: patent publication US12349973B2 (priority 2019, dated 2025).
